{"source": "paper PMC10141580", "about": "“Cyclic Dichalcogenides Extend the Reach of Bioreductive Prodrugs to Harness Thiol/Disulfide Oxidoreductases: Applications to seco-Duocarmycins Targeting the Thioredoxin System” (ACS Central Science, 2023)", "key": {"HeLa-HRE cells": {"test_system": "HeLa-HRE cells", "assay": "Resazurin cytotoxicity assay, HeLa-HRE, 48 h", "conditions": "read-out: IC50(nM): HeLa; HeLa, 48 h", "procedure": "We used A549 lung cancer and HeLa cervical cancer cell lines for initial screening of the prodrugs.\nHeLa-HRE cells were treated with prodrugs of the\nDose -response curves were calculated from at least 27 incremental single concentrations over a\nrange of at least three log units."}, "[1]": {"test_system": "NCI-60 standardized human tumor cell line panel", "assay": "cells", "assay_type": "cell-based", "conditions": "for NCI-60 screening: Log(GI50): log10 of GI50 in M; for NCI-60 screening: Log(RedIndex): log10 reductive index vs P-CC60"}}, "note": "Read-outs that look alike come from different tables or passages of the source.", "data": [{"smiles": "COc1cc2cc(C(=O)N3CC(CCl)c4c3cc(OC(=O)N3CCN(C)C5CSSCC53)c3ccccc43)[nH]c2c(OC)c1OC", "note": "(mixture of isomers) [Me-SS66C-CBI-TMI]", "values": [{"measurement": "IC50", "setting": "HeLa-HRE cells", "value": 220, "unit": "nM"}, {"measurement": "NCI-60 screening: Log(GI50)", "setting": "[1]; 786-0 (RE) cell line", "value": -6.71}, {"measurement": "NCI-60 screening: Log(RedIndex)", "setting": "[1]; 786-0 (RE) cell line", "value": 0.94}, {"measurement": "GI50", "setting": "[1]; 786-0 (RE) cell line, read-out: NCI-60 screening: Raw GI50", "value": 200, "unit": "nM"}, {"measurement": "GI50", "setting": "[1]; 786-0, read-out: GI50", "value": 200, "unit": "nM"}, {"measurement": "NCI-60 screening: Log(GI50)", "setting": "[1]; A498 (RE) cell line", "value": -5.91}, {"measurement": "NCI-60 screening: Log(RedIndex)", "setting": "[1]; A498 (RE) cell line", "value": 0.35}, {"measurement": "GI50", "setting": "[1]; A498, read-out: GI50", "value": 1200, "unit": "nM"}, {"measurement": "GI50", "setting": "[1]; A549/ATCC, read-out: GI50", "value": 180, "unit": "nM"}, {"measurement": "NCI-60 screening: Log(GI50)", "setting": "[1]; ACHN (RE) cell line", "value": -7.55}, {"measurement": "NCI-60 screening: Log(RedIndex)", "setting": "[1]; ACHN (RE) cell line", "value": 1.24}, {"measurement": "GI50", "setting": "[1]; ACHN (RE) cell line, read-out: NCI-60 screening: Raw GI50", "value": 28, "unit": "nM"}, {"measurement": "GI50", "setting": "[1]; ACHN, read-out: GI50", "value": 28, "unit": "nM"}, {"measurement": "GI50", "setting": "[1]; BT-549, read-out: GI50", "value": 170, "unit": "nM"}, {"measurement": "NCI-60 screening: Log(GI50)", "setting": "[1]; CAKI-1 (RE) cell line", "value": -6.61}, {"measurement": "NCI-60 screening: Log(RedIndex)", "setting": "[1]; CAKI-1 (RE) cell line", "value": 0.78}, {"measurement": "GI50", "setting": "[1]; CAKI-1 (RE) cell line, read-out: NCI-60 screening: Raw GI50", "value": 250, "unit": "nM"}, {"measurement": "GI50", "setting": "[1]; CAKI-1, read-out: GI50", "value": 250, "unit": "nM"}, {"measurement": "GI50", "setting": "[1]; CCRF-CEM, read-out: GI50", "value": 110, "unit": "nM"}, {"measurement": "GI50", "setting": "[1]; COLO 205, read-out: GI50", "value": 330, "unit": "nM"}, {"measurement": "NCI-60 screening: Log(GI50)", "setting": "[1]; DU-145 (PR) cell line", "value": -7.2}, {"measurement": "NCI-60 screening: Log(RedIndex)", "setting": "[1]; DU-145 (PR) cell line", "value": 0.86}, {"measurement": "GI50", "setting": "[1]; DU-145, read-out: GI50", "value": 63, "unit": "nM"}, {"measurement": "GI50", "setting": "[1]; EKVX, read-out: GI50", "value": 230, "unit": "nM"}, {"measurement": "GI50", "setting": "[1]; HCC-2998, read-out: GI50", "value": 140, "unit": "nM"}, {"measurement": "GI50", "setting": "[1]; HCT-15, read-out: GI50", "value": 250, "unit": "nM"}, {"measurement": "GI50", "setting": "[1]; HCT-116, read-out: GI50", "value": 190, "unit": "nM"}, {"measurement": "GI50", "setting": "[1]; HL-60(TB), read-out: GI50", "value": 52, "unit": "nM"}, {"measurement": "GI50", "setting": "[1]; HOP-62, read-out: GI50", "value": 200, "unit": "nM"}, {"measurement": "GI50", "setting": "[1]; HOP-92, read-out: GI50", "value": 240, "unit": "nM"}, {"measurement": "GI50", "setting": "[1]; HT29, read-out: GI50", "value": 230, "unit": "nM"}, {"measurement": "NCI-60 screening: Log(GI50)", "setting": "[1]; IGROV1 (OV) cell line", "value": -5.82}, {"measurement": "NCI-60 screening: Log(RedIndex)", "setting": "[1]; IGROV1 (OV) cell line", "value": 0.18}, {"measurement": "GI50", "setting": "[1]; IGROV1, read-out: GI50", "value": 1500, "unit": "nM"}, {"measurement": "GI50", "setting": "[1]; K-562, read-out: GI50", "value": 400, "unit": "nM"}, {"measurement": "GI50", "setting": "[1]; KM12, read-out: GI50", "value": 1100, "unit": "nM"}, {"measurement": "GI50", "setting": "[1]; LOX IMVI, read-out: GI50", "value": 170, "unit": "nM"}, {"measurement": "GI50", "setting": "[1]; M14, read-out: GI50", "value": 250, "unit": "nM"}, {"measurement": "GI50", "setting": "[1]; MALME-3M, read-out: GI50", "value": 210, "unit": "nM"}, {"measurement": "GI50", "setting": "[1]; MCF7, read-out: GI50", "value": 28, "unit": "nM"}, {"measurement": "GI50", "setting": "[1]; MDA-MB-435, read-out: GI50", "value": 840, "unit": "nM"}, {"measurement": "GI50", "setting": "[1]; MDA-MB-468, read-out: GI50", "value": 160, "unit": "nM"}, {"measurement": "GI50", "setting": "[1]; MOLT-4, read-out: GI50", "value": 70, "unit": "nM"}, {"measurement": "GI50", "setting": "[1]; NCI-H23, read-out: GI50", "value": 45, "unit": "nM"}, {"measurement": "GI50", "setting": "[1]; NCI-H226, read-out: GI50", "value": 1000, "unit": "nM"}, {"measurement": "NCI-60 screening: Log(GI50)", "setting": "[1]; NCI-H460 (LC) cell line", "value": -7.39}, {"measurement": "NCI-60 screening: Log(RedIndex)", "setting": "[1]; NCI-H460 (LC) cell line", "value": 1.1}, {"measurement": "GI50", "setting": "[1]; NCI-H460, read-out: GI50", "value": 41, "unit": "nM"}, {"measurement": "NCI-60 screening: Log(GI50)", "setting": "[1]; NCI-H522 (LC) cell line", "value": -6.84}, {"measurement": "NCI-60 screening: Log(RedIndex)", "setting": "[1]; NCI-H522 (LC) cell line", "value": 1.07}, {"measurement": "GI50", "setting": "[1]; NCI-H522 (LC) cell line, read-out: NCI-60 screening: Raw GI50", "value": 150, "unit": "nM"}, {"measurement": "GI50", "setting": "[1]; NCI-H522, read-out: GI50", "value": 150, "unit": "nM"}, {"measurement": "NCI-60 screening: Log(GI50)", "setting": "[1]; OVCAR-3 (OV) cell line", "value": -6.31}, {"measurement": "NCI-60 screening: Log(RedIndex)", "setting": "[1]; OVCAR-3 (OV) cell line", "value": 0.63}, {"measurement": "GI50", "setting": "[1]; OVCAR-3, read-out: GI50", "value": 490, "unit": "nM"}, {"measurement": "NCI-60 screening: Log(GI50)", "setting": "[1]; OVCAR-4 (OV) cell line", "value": -5.79}, {"measurement": "NCI-60 screening: Log(RedIndex)", "setting": "[1]; OVCAR-4 (OV) cell line", "value": 0.16}, {"measurement": "GI50", "setting": "[1]; OVCAR-4, read-out: GI50", "value": 1600, "unit": "nM"}, {"measurement": "NCI-60 screening: Log(GI50)", "setting": "[1]; OVCAR-5 (OV) cell line", "value": -6.55}, {"measurement": "NCI-60 screening: Log(RedIndex)", "setting": "[1]; OVCAR-5 (OV) cell line", "value": 1.26}, {"measurement": "GI50", "setting": "[1]; OVCAR-5, read-out: GI50", "value": 280, "unit": "nM"}, {"measurement": "NCI-60 screening: Log(GI50)", "setting": "[1]; OVCAR-8 (OV) cell line", "value": -6.82}, {"measurement": "NCI-60 screening: Log(RedIndex)", "setting": "[1]; OVCAR-8 (OV) cell line", "value": 1.04}, {"measurement": "GI50", "setting": "[1]; OVCAR-8 (OV) cell line, read-out: NCI-60 screening: Raw GI50", "value": 150, "unit": "nM"}, {"measurement": "GI50", "setting": "[1]; OVCAR-8, read-out: GI50", "value": 150, "unit": "nM"}, {"measurement": "NCI-60 screening: Log(GI50)", "setting": "[1]; PC-3 (PR) cell line", "value": -6.45}, {"measurement": "NCI-60 screening: Log(RedIndex)", "setting": "[1]; PC-3 (PR) cell line", "value": 0.94}, {"measurement": "GI50", "setting": "[1]; PC-3, read-out: GI50", "value": 360, "unit": "nM"}, {"measurement": "GI50", "setting": "[1]; RPMI-8226, read-out: GI50", "value": 160, "unit": "nM"}, {"measurement": "NCI-60 screening: Log(GI50)", "setting": "[1]; RXF 393 (RE) cell line", "value": -6.88}, {"measurement": "NCI-60 screening: Log(RedIndex)", "setting": "[1]; RXF 393 (RE) cell line", "value": 0.9}, {"measurement": "GI50", "setting": "[1]; RXF 393 (RE) cell line, read-out: NCI-60 screening: Raw GI50", "value": 130, "unit": "nM"}, {"measurement": "GI50", "setting": "[1]; RXF 393, read-out: GI50", "value": 130, "unit": "nM"}, {"measurement": "GI50", "setting": "[1]; SF-268, read-out: GI50", "value": 170, "unit": "nM"}, {"measurement": "GI50", "setting": "[1]; SF-295, read-out: GI50", "value": 130, "unit": "nM"}, {"measurement": "GI50", "setting": "[1]; SF-539, read-out: GI50", "value": 170, "unit": "nM"}, {"measurement": "GI50", "setting": "[1]; SK-MEL-5, read-out: GI50", "value": 170, "unit": "nM"}, {"measurement": "GI50", "setting": "[1]; SK-MEL-28, read-out: GI50", "value": 260, "unit": "nM"}, {"measurement": "NCI-60 screening: Log(GI50)", "setting": "[1]; SK-OV-3 (OV) cell line", "value": -7.47}, {"measurement": "NCI-60 screening: Log(RedIndex)", "setting": "[1]; SK-OV-3 (OV) cell line", "value": 1.8}, {"measurement": "GI50", "setting": "[1]; SK-OV-3, read-out: GI50", "value": 34, "unit": "nM"}, {"measurement": "NCI-60 screening: Log(GI50)", "setting": "[1]; SN12C (RE) cell line", "value": -6.69}, {"measurement": "NCI-60 screening: Log(RedIndex)", "setting": "[1]; SN12C (RE) cell line", "value": 0.77}, {"measurement": "GI50", "setting": "[1]; SN12C (RE) cell line, read-out: NCI-60 screening: Raw GI50", "value": 200, "unit": "nM"}, {"measurement": "GI50", "setting": "[1]; SN12C, read-out: GI50", "value": 200, "unit": "nM"}, {"measurement": "GI50", "setting": "[1]; SNB-19, read-out: GI50", "value": 220, "unit": "nM"}, {"measurement": "GI50", "setting": "[1]; SR, read-out: GI50", "value": 37, "unit": "nM"}, {"measurement": "GI50", "setting": "[1]; SW-620, read-out: GI50", "value": 260, "unit": "nM"}, {"measurement": "GI50", "setting": "[1]; T-47D, read-out: GI50", "value": 290, "unit": "nM"}, {"measurement": "NCI-60 screening: Log(GI50)", "setting": "[1]; TK-10 (RE) cell line", "value": -5.89}, {"measurement": "NCI-60 screening: Log(RedIndex)", "setting": "[1]; TK-10 (RE) cell line", "value": 0.34}, {"measurement": "GI50", "setting": "[1]; TK-10, read-out: GI50", "value": 1300, "unit": "nM"}]}]}
